Measurements taken from publication PMC6886544.

What was measured:
[1] = Plasma protein binding, human; assay type: in vitro ADME; conditions: equilibrium dialysis, 37 °C
Method: Assessment of plasma protein binding was measured by equilibrium dialysis by incubating plasma
based determination of final compound concentrations. […]

[2] = PAMPA (parallel artificial membrane permeability assay); assay type: in vitro ADME; conditions: pH 7.4, 500 µM, 16 hours
Method: masses and 0.02 Da for fragment ions. FDR was adjusted to 1% on peptide spectrum match […]
Microsomal stability (phase I) assay.
Metabolic stability under oxidative conditions was measured in liver microsomes from different species by LC/MS-based measuring of depletion of compound at a concentration of 3 µM over time up to 50 minutes (HLM) or 60 minutes (MLM) at 37 °C. Based on the compound half-life t1/2, the in vitro intrinsic clearance CLint was calculated.
Plasma stability was measured by LC/MS-based determination of the percentage of remaining compounds at a concentration of 5 µM after incubation in plasma obtained from different species […]
Assessment of plasma protein binding was measured by equilibrium dialysis by incubating plasma with the compound of interest at a concentration of 5 µM for 6 h at 37 °C followed by LC/MS-based determination of final compound concentrations.
PAMPA (Parallel artificial membrane permeability assay). […]
temperature in a wet chamber, the optical density of the solution in the receiver well was measured between 250 and 500 nm in intervals of 10 nm. The percent flux was calculated from […]

[3] = target: EGFR-T790M/L858R (Homo sapiens, UniProt P00533, L858R/T790M); assay: SelectScreen kinase profiling, EGFR-T790M/L858R; assay type: biochemical; conditions: mean ± SD of one measurement in duplicates
Sequence of EGFR-T790M/L858R (P00533 25-1210 T790M/L858R): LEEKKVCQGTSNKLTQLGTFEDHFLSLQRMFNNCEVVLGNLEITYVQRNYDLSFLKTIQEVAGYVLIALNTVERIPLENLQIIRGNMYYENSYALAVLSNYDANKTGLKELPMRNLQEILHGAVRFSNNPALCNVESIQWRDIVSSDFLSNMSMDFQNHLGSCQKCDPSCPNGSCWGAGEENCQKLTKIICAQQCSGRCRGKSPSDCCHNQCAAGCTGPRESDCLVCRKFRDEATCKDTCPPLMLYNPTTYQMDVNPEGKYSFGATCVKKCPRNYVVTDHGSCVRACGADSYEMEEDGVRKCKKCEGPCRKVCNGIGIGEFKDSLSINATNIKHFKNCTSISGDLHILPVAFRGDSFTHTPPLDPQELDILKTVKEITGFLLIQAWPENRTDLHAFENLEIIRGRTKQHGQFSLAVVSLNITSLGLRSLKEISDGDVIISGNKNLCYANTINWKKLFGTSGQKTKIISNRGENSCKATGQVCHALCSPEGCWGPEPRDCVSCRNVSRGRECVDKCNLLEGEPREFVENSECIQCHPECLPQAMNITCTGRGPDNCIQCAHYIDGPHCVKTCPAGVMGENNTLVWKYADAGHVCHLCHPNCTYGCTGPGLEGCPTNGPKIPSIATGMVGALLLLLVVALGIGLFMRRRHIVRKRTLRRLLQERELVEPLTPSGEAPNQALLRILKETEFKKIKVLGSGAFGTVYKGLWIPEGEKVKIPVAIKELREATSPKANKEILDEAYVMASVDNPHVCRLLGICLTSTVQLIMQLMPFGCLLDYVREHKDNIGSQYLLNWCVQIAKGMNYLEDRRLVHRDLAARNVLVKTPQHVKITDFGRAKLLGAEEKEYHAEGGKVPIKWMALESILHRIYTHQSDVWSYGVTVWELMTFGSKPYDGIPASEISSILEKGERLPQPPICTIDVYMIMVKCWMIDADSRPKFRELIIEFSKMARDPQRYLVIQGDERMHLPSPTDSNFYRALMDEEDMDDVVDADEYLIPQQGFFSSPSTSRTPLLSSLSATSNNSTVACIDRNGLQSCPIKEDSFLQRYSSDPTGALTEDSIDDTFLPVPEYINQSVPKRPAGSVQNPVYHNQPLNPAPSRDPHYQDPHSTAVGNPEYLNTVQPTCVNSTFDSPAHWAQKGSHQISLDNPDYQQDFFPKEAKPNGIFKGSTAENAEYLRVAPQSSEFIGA
Method: (§1) Kinase profiling of compound 17a at a concentration of 1 µM generated with the SelectScreen® Profiling Service from Life Technologies.
(§2) Figure S2. Kinase profiling of compound 17a, Illustration as waterfall plot. 9 Kinases harboring a Cysteine isostructural to Cys797 in EGFR are highlighted
(§3) Kinase % inhibition Kinase % inhibition […]
(§4) aValues are the mean ± SD of one measurement in duplicates; bKinases harboring a Cysteine isostructural to Cys797 […]
(§5) (1 picture or pasted object on this page, not shown here)

[4] = target: 100 kinases; assay: Kinase selectivity profiling with 100 kinases (SelectScreen); assay type: biochemical; conditions: screening concentration 1 μM
Method: as §1, §2, §3, §4, §5

[5] = target: ACVR1B (Homo sapiens, UniProt P36896); assay: SelectScreen kinase profiling, ACVR1B; assay type: biochemical; conditions: mean ± SD of one measurement in duplicates
Sequence of ACVR1B (P36896 24-505): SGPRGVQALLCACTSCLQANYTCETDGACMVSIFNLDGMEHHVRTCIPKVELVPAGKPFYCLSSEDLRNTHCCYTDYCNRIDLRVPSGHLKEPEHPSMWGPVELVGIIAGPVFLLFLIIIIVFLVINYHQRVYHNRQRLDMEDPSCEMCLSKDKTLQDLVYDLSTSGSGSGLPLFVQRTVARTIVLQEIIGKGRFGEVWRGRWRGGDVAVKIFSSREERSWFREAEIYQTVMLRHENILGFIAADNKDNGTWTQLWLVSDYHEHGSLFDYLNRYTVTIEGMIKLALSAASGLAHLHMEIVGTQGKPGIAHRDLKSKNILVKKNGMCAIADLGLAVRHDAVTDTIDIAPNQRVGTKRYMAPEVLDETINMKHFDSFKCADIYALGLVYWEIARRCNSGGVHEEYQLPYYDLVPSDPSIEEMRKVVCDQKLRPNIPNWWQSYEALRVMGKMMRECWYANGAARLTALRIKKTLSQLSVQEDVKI
Method: as §1, §2, §3, §4, §5

Which fraction unbound at 6 h, 5 µM [1] does the source give for `C=CC(=O)Nc1cccc(-c2c(-c3ccc(N4CCN(C)CC4)cc3)[nH]c3ncnc(OCC(C)C)c23)c1` [Compound 19h] here?
The fraction unbound at 6 h, 5 µM was 0.001.

And the PAMPA flux [2]?
The PAMPA flux was 88%.

Which inhibition at 1 µM [3] does the source give for `C=CC(=O)Nc1cccc(-c2c(-c3ccc(CN4CCN(C)CC4)cc3)[nH]c3ncnc(OC)c23)c1` [Compound 17a] here?
The inhibition at 1 µM was 88 ± 1%.

What about the “kinases with inhibitory activity of ≥70%” value [4] of the same compound?
The value was 21 kinases and 8 mutant variants.

What about the inhibition at 1 µM [5] of the same compound?
The inhibition at 1 µM was 89%.
